This is an account of results in publication PMC8229129, “Local Colonic Administration of a Serine Protease Inhibitor Improves Post-Inflammatory Visceral Hypersensitivity in Rats” (Pharmaceutics, 2021).

For orientation: IC50 means the point on the concentration scale where inhibition reaches its midpoint. Higher therefore signals weaker potency.

For data set [1], the target named is pancreatic elastase (Homo sapiens, UniProt Q9UNI1). Description: Inhibition of pancreatic elastase by UAMC-00050 (IC50). The data set is classed as biochemical. To be noted: in vitro. The method, then:
Here, the potency of UAMC-00050 to inhibit two other serine proteases, chymotrypsin and pancreatic elastase, with specificity was determined.

Data set [2] can be described thus: Plasma concentrations after intracolonic administration (LC-MS/MS). To be noted: rat; for Plasma concentration: intracolonic 5 mg/kg. The data set is classed as in vivo, Sprague–Dawley rats. As to the method:
To evaluate the pharmacokinetic properties of UAMC-00050, it was administered in male Sprague–Dawley rats (200–225 g) either colonically (5 mg/kg, in a volume of 200 µL 5% DMSO solution) or intravenously (1 mg/kg in a volume of 200 µL 5% DMSO solution). Plasma samples were collected after 5, 15, 30, 45, 60, 90, 120, and 180 min via the tail vein and stored at −80 °C until analysis.
Sample preparation and analysis of plasma samples consisted of protein precipitation followed by direct injection in a liquid chromatography–tandem mass spectrometry (LC-MS/MS) instrument. Briefly, 100 µL of plasma was spiked with 20 µL of nordazepam-D5 used as internal standard for quantification (yielding in a final concentration of 485 ng/mL) and afterwards 180 µL of acetonitrile was added to precipitate proteins. Subsequently, the samples were vortexed for 2.5 min at 2000× g and centrifuged for 5 min at 10,000× g. In a next step, 100 µL of the supernatant was transferred to a 0.20 µm centrifugal filter to remove remaining particles. After centrifugation for 5 min at 10,000× g, the remaining filtrate was transferred to an autosampler vial ready to be analyzed with LC-MS/MS. A seven-level point calibration curve with final concentrations ranging between 5 and 1000 ng/mL and a curve weighting factor of 1/x^2 was prepared in blank mouse plasma using different working solution standards of UAMC-00050 and a fixed amount of internal standard. The lower limit of quantification of the method was 5 ng/mL.
A gradient was applied as follows: 0–0.5 min: 5% B; 0.5–10 min 5–100% B; 10–12 min 100% B; and 12–12.1 min 5% B. The total run time was 18 min and the injection volume was set to 5 µL. Detection and quantification of UAMC-00050 were performed with an Agilent 6410 triple quadrupole MS system with an electrospray interface (ESI) operating in positive ionization mode. The following source parameters were applied: gas temperature 350 °C, gas flow 10 L/min, nebulizer 35 psi, and capillary voltage 4000 V. Compound-dependent MS parameters are summarized in Table 1. The most abundant transition of UAMC-00050 was used as quantifier and the other transitions were used for confirmation (qualifiers). For compound confirmation, the following criteria were used: the quantifier/qualifier ratio should fall within ±15% of the ratio observed in calibrators and the relative retention time should fall within 2.5% of the values observed in the calibrators.

Data set [3] deals with trypsin-like activity in colonic tissue. Kind of data set: Trypsin-like activity in colonic tissue after intracolonic administration (fluorogenic substrates). The data set is classed as in vivo, Sprague–Dawley rats. The settings on record: post-colitis rats, 5 mg/kg intracolonic, colon harvested 90 min after administration, median (IQR), n = 12; vehicle 1.08 (1.19), p < 0.01. The method, then: The serine protease inhibitor UAMC-00050 (0.1–1.0–2.5–5.0 mg/kg, dissolved in a volume of 200 µL) or its vehicle (5% DMSO in H2O) was delivered colonically using a flexible catheter (18 G, length 4.5 cm) under short-lasting isoflurane anesthesia (5.0% induction, 1.5% maintenance). To prevent expulsion of the enema, animals were held in a Trendelenburg position for 90 s. Doses for intracolonic administration were based on the doses known to be effective via an i.p. administration and adapted afterwards based on preliminary results.
Trypsin-like, chymotrypsin-like, cathepsin G, elastase-like, and kallikrein activities were determined in colon tissue and fecal samples to profile serine protease activity. […]
Boc-Gln-Ala-Arg-AMC (75 µM) and n-Tosyl-Gly-Pro-Arg-AMC (100 µM) in 50 mM Tris-HCl pH 8.0 containing 120 mM NaCl were used to measure the trypsin-like activity. […] The fluorescence was measured during 20 min at 37 °C on a Tecan Infinite F200 Pro microtiter plate reader. The other activities were assessed in a similar assay, using the substrates mentioned below. Chymotrypsin-like and kallikrein activity were measured with Suc-Ala-Ala-Pro-Phe-AMC (0.45 mM) and H-Pro-Phe-Arg-AMC (0.45 mM), respectively. Elastase-like activity was measured using two assays, one using Suc-Ala-Ala-Pro-Val-AMC as a substrate and the other using Suc-Ala-Ala-Ala-AMC (both 0.45 mM). […]

For data set [4], the system named is tryptase. On the set-up: method as in PMID 29911328. To be noted: in vitro; cited from earlier work.
Data set [5] concerns kallikrein 8. Also on record: method as in PMID 29911328. To be noted: in vitro; cited from earlier work.
The subject of data set [6] is chronic colitis. Also on record: method as in doi:10.1016/S0016-5085(16)33277-2. To be noted: murine CD4+CD25−CD62L+ T-cell transfer model for chronic colitis; cited from earlier work.

Chain of pancreatic elastase (Q9UNI1 19-258): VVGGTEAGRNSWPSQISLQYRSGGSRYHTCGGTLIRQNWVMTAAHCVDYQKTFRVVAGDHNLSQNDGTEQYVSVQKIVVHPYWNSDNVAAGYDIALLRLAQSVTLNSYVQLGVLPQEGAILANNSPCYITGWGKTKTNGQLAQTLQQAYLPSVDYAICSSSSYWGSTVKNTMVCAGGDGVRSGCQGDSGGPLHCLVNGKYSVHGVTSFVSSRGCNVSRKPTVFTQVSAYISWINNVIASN

In data set [1], `CC(=O)Nc1ccc(OP(=O)(Oc2ccc(NC(C)=O)cc2)C(Cc2ccc(N=C(N)N)cc2)NC(=O)OCc2ccccc2)cc1.Cl` (stereo not drawn) [UAMC-00050] came in with an IC50 above 10 µM. Also, the “Plasma concentration after intracolonic administration as share of plasma concentration after intravenous administration” value in data set [2] (5 min after administration, 5 mg/kg intracolonic versus 1 mg/kg intravenous) was 5.4%. Also, the Plasma concentration entry is “below the lower limit of quantification” in data set [2] (30–180 min after administration, lower limit of quantification 5 ng/mL); 14.1 ± 2.9 ng/mL in data set [2] (5 min after administration, mean ± SEM, n = 5); 10.3 ± 1.3 ng/mL in data set [2] (15 min after administration, mean ± SEM, n = 5). Also, the “Trypsin-like activity in colonic tissue (Tos-Gly-Pro-Arg-AMC)” value in data set [3] is reported as 0.23 (0.18) U/g. Further, the inhibition of tryptase result in data set [4] is recorded as “efficiently inhibits”. Moreover, in data set [5], the “inhibition of kallikrein 8” value was “efficiently inhibits”. In addition, in data set [6], the Effect on inflammation result is reported as “anti-inflammatory effects”.
